Each structure is given as a SMILES string.

The data set in a line: Effectiveness and irritation of lower octenidine concentration in gel formulation (statement in description). As to conditions: concentration of 0.05% octenidine, compared with common 0.1%.

`CCCCCCCCN=c1ccn(CCCCCCCCCCn2ccc(=NCCCCCCCC)cc2)cc1` [octenidine, 1,1′-(1.1 O-decandiyl) to [4-(octylamino)pyridinium]-dichloride]: the effectiveness result was “sufficiently good effectiveness” and the irritation entry is on record as “lower irritation”.

For the origin of these results see patent US20140370067A1, “Method and applicator for the perioperative disinfection of medical instruments to be inserted through non-natural openings” (priority 2012, published 2014).
